The results in this text go back to ChEMBL document CHEMBL1143427, “Interactions of ceftobiprole with beta-lactamases from molecular classes A to D” (Antimicrob Agents Chemother, 2007).

The target of test [1] is Beta-lactamase (Pseudomonas aeruginosa (strain ATCC 15692 / PAO1 / 1C / PRS 101 / LMG12228)) (UniProt P24735). Description: Ratio of Kcat to Km of Pseudomonas aeruginosa 4352 AmpC assessed as drug hydrolysis by spectrophotometry relative to cephaloridine. Set-up: scale not given: the % may be the effect or the level left.
Test [2] has as its target T1, Beta-lactamase (Providencia stuartii) (UniProt O69773).
T1 sequence (whole entry): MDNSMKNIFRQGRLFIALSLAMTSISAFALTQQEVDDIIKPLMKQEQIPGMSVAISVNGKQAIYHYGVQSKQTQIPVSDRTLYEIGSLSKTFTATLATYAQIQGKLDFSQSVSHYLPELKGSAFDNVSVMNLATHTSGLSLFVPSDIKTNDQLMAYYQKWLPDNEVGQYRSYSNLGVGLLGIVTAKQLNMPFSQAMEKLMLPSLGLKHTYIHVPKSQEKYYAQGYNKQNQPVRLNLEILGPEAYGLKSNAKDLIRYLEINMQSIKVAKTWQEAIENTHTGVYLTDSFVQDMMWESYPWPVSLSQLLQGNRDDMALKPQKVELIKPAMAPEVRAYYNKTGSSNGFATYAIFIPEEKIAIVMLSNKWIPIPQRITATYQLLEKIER
In words: Ratio of Kcat to Km of Providencia stuartii AmpC assessed as drug hydrolysis by spectrophotometry relative to cephaloridine. Details: scale not given: the % may be the effect or the level left.

Test [3] addresses Beta-lactamase VIM-2 (Pseudomonas aeruginosa) (UniProt Q9K2N0). In words: Activity of Pseudomonas aeruginosa VIM2 assessed as drug hydrolysis by spectrophotometry relative to cephaloridine. Details: scale not given: the % may be the effect or the level left.
Test [4] concerns the target Beta-lactamase (Staphylococcus aureus) (UniProt P00807). In words: Ratio of Kcat to Km of Staphylococcus aureus betalactamase PC1 assessed as drug hydrolysis by spectrophotometry relative to cephaloridine. Details: scale not given: the % may be the effect or the level left.
The target of test [5] is T1, Beta-lactamase (Providencia stuartii). Description: Activity of Providencia stuartii AmpC assessed as drug hydrolysis by spectrophotometry relative to cephaloridine. Details: scale not given: the % may be the effect or the level left.
Test [6] deals with T2, Beta-lactamase SHV-1 (Klebsiella pneumoniae) (UniProt P0AD64).
T2 sequence (whole entry): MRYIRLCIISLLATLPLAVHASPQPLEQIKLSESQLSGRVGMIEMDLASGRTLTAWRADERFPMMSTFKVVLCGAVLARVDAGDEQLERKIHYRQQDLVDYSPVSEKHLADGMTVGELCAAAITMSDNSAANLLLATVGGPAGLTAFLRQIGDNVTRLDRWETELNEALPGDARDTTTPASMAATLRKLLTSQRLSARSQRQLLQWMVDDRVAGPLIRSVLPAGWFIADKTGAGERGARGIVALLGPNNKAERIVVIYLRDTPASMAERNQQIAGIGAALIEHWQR
In words: Activity of Klebsiella pneumoniae SHV1 assessed as drug hydrolysis by spectrophotometry relative to cephaloridine. Details: scale not given: the % may be the effect or the level left.

In test [7] the target is T3, Carbapenem-hydrolyzing beta-lactamase SME-3 (Serratia marcescens) (UniProt Q6PRG8).
T3 sequence (whole entry): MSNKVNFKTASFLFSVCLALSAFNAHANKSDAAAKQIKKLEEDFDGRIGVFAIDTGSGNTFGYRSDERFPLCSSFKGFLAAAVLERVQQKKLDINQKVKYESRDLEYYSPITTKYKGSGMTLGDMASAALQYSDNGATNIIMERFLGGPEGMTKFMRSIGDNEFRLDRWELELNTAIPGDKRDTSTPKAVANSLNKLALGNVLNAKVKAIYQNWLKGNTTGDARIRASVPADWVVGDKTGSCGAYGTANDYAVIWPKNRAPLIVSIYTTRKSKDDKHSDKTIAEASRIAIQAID
In words: Ratio of Kcat to Km of Serratia marcescens SME3 assessed as drug hydrolysis by spectrophotometry relative to cephaloridine. Details: scale not given: the % may be the effect or the level left.

The target of test [8] is Metallo beta-lactamase (Pseudomonas aeruginosa) (UniProt Q6TUJ4). In words: Ratio of Kcat to Km of Pseudomonas aeruginosa IMP1 assessed as drug hydrolysis by spectrophotometry relative to cephaloridine. Set-up: scale not given: the % may be the effect or the level left.
For test [9], the target named is T4, Beta-lactamase (Klebsiella oxytoca) (UniProt Q8RT60).
T4 sequence (whole entry): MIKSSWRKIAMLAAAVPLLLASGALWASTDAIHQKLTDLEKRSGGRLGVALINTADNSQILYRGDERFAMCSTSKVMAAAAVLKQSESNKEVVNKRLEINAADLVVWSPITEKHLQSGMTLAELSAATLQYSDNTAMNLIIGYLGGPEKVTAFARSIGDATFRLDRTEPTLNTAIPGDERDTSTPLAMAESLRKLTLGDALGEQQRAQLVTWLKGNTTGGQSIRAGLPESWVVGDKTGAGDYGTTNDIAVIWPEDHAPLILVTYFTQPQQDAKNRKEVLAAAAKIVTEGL
Description: Activity of Klebsiella oxytoca beta-lactamase K1 assessed as drug hydrolysis by spectrophotometry relative to cephaloridine. Set-up: scale not given: the % may be the effect or the level left.

Test [10] deals with Beta-lactamase (Pseudomonas aeruginosa (strain ATCC 15692 / PAO1 / 1C / PRS 101 / LMG12228)) (UniProt P24735). Description: Ratio of Kcat to Km of Pseudomonas aeruginosa 18SH AmpC assessed as drug hydrolysis by spectrophotometry relative to cephaloridine. Details: scale not given: the % may be the effect or the level left.
The target in test [11] is Beta-lactamase (Staphylococcus aureus) (UniProt P00807). Description: Activity of Staphylococcus aureus betalactamase PC1 assessed as drug hydrolysis by spectrophotometry relative to cephaloridine. Set-up: scale not given: the % may be the effect or the level left.
Test [12] deals with Beta-lactamase (Pseudomonas aeruginosa (strain ATCC 15692 / PAO1 / 1C / PRS 101 / LMG12228)) (UniProt P24735). In words: Ratio of Kcat to Km of Pseudomonas aeruginosa MK-1184 AmpC assessed as drug hydrolysis by spectrophotometry relative to cephaloridine. Details: scale not given: the % may be the effect or the level left.
The target of test [13] is Beta-lactamase TEM (Escherichia coli) (UniProt P62593). Description: Activity of Escherichia coli TEM1 assessed as drug hydrolysis by spectrophotometry relative to cephaloridine. Set-up: scale not given: the % may be the effect or the level left.
Test [14] has as its target Beta-lactamase VIM-2 (Pseudomonas aeruginosa) (UniProt Q9K2N0). In words: Ratio of Kcat to Km of Pseudomonas aeruginosa VIM2 assessed as drug hydrolysis by spectrophotometry relative to cephaloridine. Details: scale not given: the % may be the effect or the level left.
Test [15] has as its target T4, Beta-lactamase (Klebsiella oxytoca). Description: Ratio of Kcat to Km of Klebsiella oxytoca beta-lactamase K1 assessed as drug hydrolysis by spectrophotometry relative to cephaloridine. Details: scale not given: the % may be the effect or the level left.
For test [16], the target named is Beta-lactamase CTX-M (Escherichia coli) (UniProt Q9EXV5). In words: Ratio of Kcat to Km of Escherichia coli CTX-M-15 assessed as drug hydrolysis by spectrophotometry relative to cephaloridine. Set-up: scale not given: the % may be the effect or the level left.
Test [17] addresses Beta-lactamase (Pseudomonas aeruginosa (strain ATCC 15692 / PAO1 / 1C / PRS 101 / LMG12228)) (UniProt P24735). Description: Activity of Pseudomonas aeruginosa AmpC assessed as drug hydrolysis by spectrophotometry relative to cephaloridine. Details: scale not given: the % may be the effect or the level left.
The target is the same in test [18]. Description: Activity of Pseudomonas aeruginosa MK-1184 AmpC assessed as drug hydrolysis by spectrophotometry relative to cephaloridine. Details: scale not given: the % may be the effect or the level left.
Test [19] concerns the target T3, Carbapenem-hydrolyzing beta-lactamase SME-3 (Serratia marcescens). Description: Activity of Serratia marcescens SME3 assessed as drug hydrolysis by spectrophotometry relative to cephaloridine. Set-up: scale not given: the % may be the effect or the level left.
For test [20], the target named is Beta-lactamase (Morganella morganii) (UniProt P94958). In words: Activity of Morganella morganii AmpC assessed as drug hydrolysis by spectrophotometry relative to cephaloridine. Details: scale not given: the % may be the effect or the level left.
Test [21] has as its target Beta-lactamase CTX-M (Escherichia coli) (UniProt Q9EXV5). In words: Activity of Escherichia coli CTX-M-15 assessed as drug hydrolysis by spectrophotometry relative to cephaloridine. Set-up: scale not given: the % may be the effect or the level left.
The target in test [22] is Beta-lactamase (Pseudomonas aeruginosa (strain ATCC 15692 / PAO1 / 1C / PRS 101 / LMG12228)) (UniProt P24735). In words: Activity of Pseudomonas aeruginosa 4352 AmpC assessed as drug hydrolysis by spectrophotometry relative to cephaloridine. Details: scale not given: the % may be the effect or the level left.
The target of test [23] is T2, Beta-lactamase SHV-1 (Klebsiella pneumoniae). Description: Ratio of Kcat to Km of Klebsiella pneumoniae SHV1 assessed as drug hydrolysis by spectrophotometry relative to cephaloridine. Details: scale not given: the % may be the effect or the level left.
In test [24] the test system is Klebsiella pneumoniae. In words: Activity of Klebsiella pneumoniae TEM26 assessed as drug hydrolysis by spectrophotometry relative to cephaloridine. Set-up: scale not given: the % may be the effect or the level left.
For test [25], the system named is Klebsiella pneumoniae. Description: Ratio of Kcat to Km of Klebsiella pneumoniae TEM26 assessed as drug hydrolysis by spectrophotometry relative to cephaloridine. Details: scale not given: the % may be the effect or the level left.
In test [26] the target is Beta-lactamase (Pseudomonas aeruginosa (strain ATCC 15692 / PAO1 / 1C / PRS 101 / LMG12228)) (UniProt P24735). Description: Activity of Pseudomonas aeruginosa 18SH AmpC assessed as drug hydrolysis by spectrophotometry relative to cephaloridine. Set-up: scale not given: the % may be the effect or the level left.
Test [27] has as its target Beta-lactamase (Morganella morganii) (UniProt P94958). Description: Ratio of Kcat to Km of Morganella morganii AmpC assessed as drug hydrolysis by spectrophotometry relative to cephaloridine. Details: scale not given: the % may be the effect or the level left.
The target of test [28] is Beta-lactamase TEM (Escherichia coli) (UniProt P62593). Description: Ratio of Kcat to Km of Escherichia coli TEM1 assessed as drug hydrolysis by spectrophotometry relative to cephaloridine. Set-up: scale not given: the % may be the effect or the level left.
Test [29] has as its target Beta-lactamase (Pseudomonas aeruginosa (strain ATCC 15692 / PAO1 / 1C / PRS 101 / LMG12228)) (UniProt P24735). In words: Ratio of Kcat to Km of Pseudomonas aeruginosa AmpC assessed as drug hydrolysis by spectrophotometry relative to cephaloridine. Details: scale not given: the % may be the effect or the level left.
Test [30] has as its target Beta-lactamase (Serratia marcescens) (UniProt P18539). Description: Activity of Serratia marcescens AmpC assessed as drug hydrolysis by spectrophotometry relative to cephaloridine. Details: scale not given: the % may be the effect or the level left.
The test system of test [31] is Klebsiella pneumoniae. Description: Ratio of Kcat to Km of Klebsiella pneumoniae TEM26 assessed as drug hydrolysis by spectrophotometry.
The target in test [32] is Beta-lactamase (Serratia marcescens) (UniProt P18539). Description: Ratio of Kcat to Km of Serratia marcescens AmpC assessed as drug hydrolysis by spectrophotometry relative to cephaloridine. Details: scale not given: the % may be the effect or the level left.
The subject of test [33] is Klebsiella pneumoniae. In words: Activity of Klebsiella pneumoniae TEM26 assessed as drug hydrolysis by spectrophotometry.

In general, kcat/Km refers to the second-order rate constant that governs catalysis at low substrate concentration. For orientation: Km means the substrate concentration at which the rate is half of its maximum. Usually kcat stands for the maximal rate divided by the concentration of active sites.

Chain of Beta-lactamase (Pseudomonas aeruginosa (strain ATCC 15692 / PAO1 / 1C / PRS 101 / LMG12228)) (P24735 27-397 limits assumed): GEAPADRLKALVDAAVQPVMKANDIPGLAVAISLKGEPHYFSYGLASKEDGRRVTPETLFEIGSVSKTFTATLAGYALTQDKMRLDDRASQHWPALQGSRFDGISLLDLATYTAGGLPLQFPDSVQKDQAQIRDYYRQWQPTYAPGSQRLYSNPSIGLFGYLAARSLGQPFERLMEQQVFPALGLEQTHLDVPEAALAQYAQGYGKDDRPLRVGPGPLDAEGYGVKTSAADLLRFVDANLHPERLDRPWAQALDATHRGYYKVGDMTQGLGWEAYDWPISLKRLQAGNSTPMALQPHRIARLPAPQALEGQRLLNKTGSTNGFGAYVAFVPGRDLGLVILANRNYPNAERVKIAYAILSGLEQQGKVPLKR
Chain of Beta-lactamase (Serratia marcescens) (P18539 whole entry): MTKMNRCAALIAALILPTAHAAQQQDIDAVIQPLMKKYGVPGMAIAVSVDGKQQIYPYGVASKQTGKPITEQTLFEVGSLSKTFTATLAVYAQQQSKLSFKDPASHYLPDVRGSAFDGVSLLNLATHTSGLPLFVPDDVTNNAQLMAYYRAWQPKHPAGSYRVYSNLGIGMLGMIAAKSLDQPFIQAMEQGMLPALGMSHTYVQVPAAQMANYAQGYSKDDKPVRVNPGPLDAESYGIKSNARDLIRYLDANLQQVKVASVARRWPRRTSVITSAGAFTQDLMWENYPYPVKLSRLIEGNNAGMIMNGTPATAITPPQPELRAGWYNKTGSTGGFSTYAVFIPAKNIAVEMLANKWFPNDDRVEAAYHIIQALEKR
Chain of Beta-lactamase (Staphylococcus aureus) (P00807 whole entry): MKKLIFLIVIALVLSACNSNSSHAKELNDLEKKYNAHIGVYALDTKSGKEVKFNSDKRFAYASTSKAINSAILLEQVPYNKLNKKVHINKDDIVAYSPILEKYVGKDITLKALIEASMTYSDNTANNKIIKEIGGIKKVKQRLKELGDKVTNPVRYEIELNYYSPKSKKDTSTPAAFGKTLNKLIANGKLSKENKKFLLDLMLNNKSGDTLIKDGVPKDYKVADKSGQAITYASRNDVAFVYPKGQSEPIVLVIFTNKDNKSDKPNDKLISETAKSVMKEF
Chain of Beta-lactamase TEM (Escherichia coli) (P62593 whole entry): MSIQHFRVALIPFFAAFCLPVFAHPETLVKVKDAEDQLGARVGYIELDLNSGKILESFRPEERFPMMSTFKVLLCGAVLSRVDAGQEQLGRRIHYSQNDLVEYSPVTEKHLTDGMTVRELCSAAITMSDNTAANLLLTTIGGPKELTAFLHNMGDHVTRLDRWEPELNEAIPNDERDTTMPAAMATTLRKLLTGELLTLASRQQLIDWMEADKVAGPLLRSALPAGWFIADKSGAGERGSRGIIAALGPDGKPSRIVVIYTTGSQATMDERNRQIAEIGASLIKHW
Chain of Metallo beta-lactamase (Pseudomonas aeruginosa) (Q6TUJ4 as listed by the source): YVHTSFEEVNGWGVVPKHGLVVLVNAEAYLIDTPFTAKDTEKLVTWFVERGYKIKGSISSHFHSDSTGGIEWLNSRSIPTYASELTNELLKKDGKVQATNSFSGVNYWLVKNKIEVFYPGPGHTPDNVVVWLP

Turning to `Nc1nc(/C(=N/O)C(=O)N[C@@H]2C(=O)N3C(C(=O)O)=C(/C=C4\CCN([C@@H]5CCNC5)C4=O)CS[C@H]23)ns1`, the Activity in test [1] came to 0.14%; in [2] it was 0.11%; in [3] it was 13%; in test [4], 24%; in [5], 0.03%; in test [6], 6%. For the same compound, the Activity in test [7] was determined as 0.73%; in test [8], 990%; in [9], 33%; in test [10], 0.71%; in test [11], 17%; in test [12] it was 1%. In addition, the Activity is 0.9% in test [13]; 380% in test [14]; 100% in test [15]; 290% in test [16]; 1400% in test [17]; 2% in test [18]. The Activity in [19] is 0.49%; in test [20], less than 0.0064%; in [21] it was 140%; in test [22], less than 0.024%; in test [23], 7.4%; in [24], 19%. Besides, the Activity was 20% in test [25]; 0.028% in test [26]; less than 0.071% in test [27]; 1.6% in test [28]; 9900% in [29]; less than 0.14% in test [30]. Besides, in [32], the Activity is less than 0.27%. The kcat/Km in test [31] was found to be 110000 M⁻¹ s⁻¹. Also, in test [33], the Km was found to be 63 µM. For the same compound, in test [33], the kcat amounted to 6.9 s⁻¹.

For the compound `O=C(Cc1cccs1)N[C@@H]1C(=O)N2C(C(=O)O)=C(/C=C/c3ccc([N+](=O)[O-])cc3[N+](=O)[O-])CS[C@H]12`, the Activity worked out at 1800% in test [1]; 160% in test [20]; 68% in [22]; 1400% in test [27]; 42% in test [30]; 19% in test [32].

Consider `O=C(Cc1cccs1)N[C@@H]1C(=O)N2C(C(=O)[O-])=C(C[n+]3ccccc3)CS[C@H]12`, for which, in [31], the kcat/Km stood at 560000 M⁻¹ s⁻¹. Further, in [33], the Michaelis constant (Km) was 66 µM and the kcat was determined as 37 s⁻¹.
